Legend:
Type in all cases: functional
BT-549 = assay: Growth inhibition of human BT-549 cells
Hs-578T = assay: Growth inhibition of human HS 578T cells
LOX IMVI = assay: Growth inhibition of human LOX IMVI cells
UO-31 = assay: Growth inhibition of human UO-31 cells
HL-60(TB) = assay: Growth inhibition of human HL-60(TB) cells
MCF7 = assay: Growth inhibition of human MCF7 cells
MDA-MB-231 = assay: Growth inhibition of human MDA-MB-231 cells
MDA-MB-468 = assay: Growth inhibition of human MDA-MB-468 cells
T47D = assay: Growth inhibition of human T47D cells
SF-268 = assay: Growth inhibition of human SF-268 cells
SF-295 = assay: Growth inhibition of human SF-295 cells
SF-539 = assay: Growth inhibition of human SF-539 cells
SNB-19 = assay: Growth inhibition of human SNB-19 cells
SNB-75 = assay: Growth inhibition of human SNB-75 cells
U-251 = assay: Growth inhibition of human U-251 cells
COLO 205 = assay: Growth inhibition of human COLO 205 cells
HCC 2998 = assay: Growth inhibition of human HCC 2998 cells
HCT-116 = assay: Growth inhibition of human HCT-116 cells
HCT-15 = assay: Growth inhibition of human HCT-15 cells
HT-29 = assay: Growth inhibition of human HT-29 cells
KM12 = assay: Growth inhibition of human KM12 cells
SW-620 = assay: Growth inhibition of human SW620 cells
786-0 = assay: Growth inhibition of human 786-0 cells
A498 = assay: Growth inhibition of human A498 cells
ACHN = assay: Growth inhibition of human ACHN cells
CAKI-1 = assay: Growth inhibition of human CAKI-1 cells
RXF 393 = assay: Growth inhibition of human RXF 393 cells
SN12C = assay: Growth inhibition of human SN12C cells
TK-10 = assay: Growth inhibition of human TK-10 cells
CCRF-CEM = assay: Growth inhibition of human CCRF-CEM cells
K562 = assay: Growth inhibition of human K562 cells
MOLT-4 = assay: Growth inhibition of human MOLT-4 cells
RPMI-8226 = assay: Growth inhibition of human RPMI-8226 cells
SR = assay: Growth inhibition of human SR cells
A549 = assay: Growth inhibition of human A549 cells
EKVX = assay: Growth inhibition of human EKVX cells
HOP-62 = assay: Growth inhibition of human HOP-62 cells
HOP-92 = assay: Growth inhibition of human HOP-92 cells
NCI-H226 = assay: Growth inhibition of human NCI-H226 cells
NCI-H23 = assay: Growth inhibition of human NCI-H23 cells
NCI-H322M = assay: Growth inhibition of human NCI-H322M cells
NCI-H460 = assay: Growth inhibition of human NCI-H460 cells
NCI-H522 = assay: Growth inhibition of human NCI-H522 cells
M14 = assay: Growth inhibition of human M14 cells
Malme-3M = assay: Growth inhibition of human Malme-3M cells
MDA-MB-435 = assay: Growth inhibition of human MDA-MB-435 cells
SK-MEL-2 = assay: Growth inhibition of human SK-MEL-2 cells
SK-MEL-28 = assay: Growth inhibition of human SK-MEL-28 cells
SK-MEL-5 = assay: Growth inhibition of human SK-MEL-5 cells
UACC-257 = assay: Growth inhibition of human UACC-257 cells
UACC-62 = assay: Growth inhibition of human UACC-62 cells
IGROV-1 = assay: Growth inhibition of human IGROV-1 cells
OVCAR-3 = assay: Growth inhibition of human OVCAR-3 cells
OVCAR-4 = assay: Growth inhibition of human OVCAR-4 cells
OVCAR-5 = assay: Growth inhibition of human OVCAR-5 cells
OVCAR-8 = assay: Growth inhibition of human OVCAR-8 cells
SK-OV-3 = assay: Growth inhibition of human SK-OV-3 cells
NCI/ADR-RES = assay: Growth inhibition of human NCI-ADR-RES cells
DU-145 = assay: Growth inhibition of human DU-145 cells
PC-3 = assay: Growth inhibition of human PC-3 cells

CCCCCCCCC/C=C(/C)CC(C)(O)CC(C)C(O)CC(=O)OC (stereo not given)
GI50 (BT-549): > 100000 nM
GI50 (Hs-578T): > 100000 nM
GI50 (LOX IMVI): > 100000 nM
GI50 (UO-31): > 100000 nM
GI50 (HL-60(TB)): > 100000 nM
GI50 (MCF7): > 100000 nM
GI50 (MDA-MB-231): > 100000 nM
GI50 (MDA-MB-468): > 100000 nM
GI50 (T47D): > 100000 nM
GI50 (SF-268): > 100000 nM
GI50 (SF-295): > 100000 nM
GI50 (SF-539): > 100000 nM
GI50 (SNB-19): > 100000 nM
GI50 (SNB-75): > 100000 nM
GI50 (U-251): > 100000 nM
GI50 (COLO 205): > 100000 nM
GI50 (HCC 2998): > 100000 nM
GI50 (HCT-116): > 100000 nM
GI50 (HCT-15): > 100000 nM
GI50 (HT-29): > 100000 nM
GI50 (KM12): > 100000 nM
GI50 (SW-620): > 100000 nM
GI50 (786-0): > 100000 nM
GI50 (A498): > 100000 nM
GI50 (ACHN): > 100000 nM
GI50 (CAKI-1): > 100000 nM
GI50 (RXF 393): > 100000 nM
GI50 (SN12C): > 100000 nM
GI50 (TK-10): > 100000 nM
GI50 (CCRF-CEM): > 100000 nM
GI50 (K562): > 100000 nM
GI50 (MOLT-4): > 100000 nM
GI50 (RPMI-8226): > 100000 nM
GI50 (SR): > 100000 nM
GI50 (A549): > 100000 nM
GI50 (EKVX): > 100000 nM
GI50 (HOP-62): > 100000 nM
GI50 (HOP-92): > 100000 nM
GI50 (NCI-H226): > 100000 nM
GI50 (NCI-H23): > 100000 nM
GI50 (NCI-H322M): > 100000 nM
GI50 (NCI-H460): > 100000 nM
GI50 (NCI-H522): > 100000 nM
GI50 (M14): > 100000 nM
GI50 (Malme-3M): > 100000 nM
GI50 (MDA-MB-435): > 100000 nM
GI50 (SK-MEL-2): > 100000 nM
GI50 (SK-MEL-28): > 100000 nM
GI50 (SK-MEL-5): > 100000 nM
GI50 (UACC-257): > 100000 nM
GI50 (UACC-62): > 100000 nM
GI50 (IGROV-1): > 100000 nM
GI50 (OVCAR-3): > 100000 nM
GI50 (OVCAR-4): > 100000 nM
GI50 (OVCAR-5): > 100000 nM
GI50 (OVCAR-8): > 100000 nM
GI50 (SK-OV-3): > 100000 nM
GI50 (NCI/ADR-RES): > 100000 nM
GI50 (DU-145): > 100000 nM
GI50 (PC-3): > 100000 nM

CCCCCCCC/C=C(/C)C[C@]1(C)C[C@H](C)[C@@H](CC(=O)O)OO1
GI50 (BT-549): 600 nM
GI50 (Hs-578T): 600 nM
GI50 (LOX IMVI): 10 nM
GI50 (UO-31): 60 nM
GI50 (HL-60(TB)): 90 nM
GI50 (MCF7): 600 nM
GI50 (MDA-MB-231): 600 nM
GI50 (MDA-MB-468): 600 nM
GI50 (T47D): 600 nM
GI50 (SF-268): 600 nM
GI50 (SF-295): 600 nM
GI50 (SF-539): 600 nM
GI50 (SNB-19): 600 nM
GI50 (SNB-75): 600 nM
GI50 (U-251): 600 nM
GI50 (COLO 205): 600 nM
GI50 (HCC 2998): 600 nM
GI50 (HCT-116): 600 nM
GI50 (HCT-15): 600 nM
GI50 (HT-29): 600 nM
GI50 (KM12): 600 nM
GI50 (SW-620): 600 nM
GI50 (786-0): 600 nM
GI50 (A498): 600 nM
GI50 (ACHN): 600 nM
GI50 (CAKI-1): 600 nM
GI50 (RXF 393): 600 nM
GI50 (SN12C): 600 nM
GI50 (TK-10): 600 nM
GI50 (CCRF-CEM): 600 nM
GI50 (K562): 600 nM
GI50 (MOLT-4): 600 nM
GI50 (RPMI-8226): 600 nM
GI50 (SR): 600 nM
GI50 (A549): 600 nM
GI50 (EKVX): 600 nM
GI50 (HOP-62): 600 nM
GI50 (HOP-92): 600 nM
GI50 (NCI-H226): 600 nM
GI50 (NCI-H23): 600 nM
GI50 (NCI-H322M): 600 nM
GI50 (NCI-H460): 600 nM
GI50 (NCI-H522): 600 nM
GI50 (M14): 600 nM
GI50 (Malme-3M): 600 nM
GI50 (MDA-MB-435): 600 nM
GI50 (SK-MEL-2): 600 nM
GI50 (SK-MEL-28): 600 nM
GI50 (SK-MEL-5): 600 nM
GI50 (UACC-257): 600 nM
GI50 (UACC-62): 600 nM
GI50 (IGROV-1): 600 nM
GI50 (OVCAR-3): 600 nM
GI50 (OVCAR-4): 600 nM
GI50 (OVCAR-5): 600 nM
GI50 (OVCAR-8): 600 nM
GI50 (SK-OV-3): 600 nM
GI50 (NCI/ADR-RES): 600 nM
GI50 (DU-145): 600 nM
GI50 (PC-3): 600 nM

Reference: ChEMBL document CHEMBL6083215, “Structure elucidation, absolute configuration, and biological evaluation of cyclic peroxides from the sponge Plakinastrella sp” (2024)
